Experimental data: patent publication US5185442A, “New diazepines substituted in the 6-position, processes for their preparation and their use as pharmaceutical compositions” (Boehringer Ingelheim KG, priority 1991, dated 1993)

Biological target: T1, PAF receptor (vital human blood platelets) (Homo sapiens, UniProt P25105)
T1 construct: endogenous in cells; host or cells: vital human blood platelets (thrombocytes) from blood samples of healthy donors, purified on Sepharose CL-2B
Test: [3H]PAF receptor binding to vital human blood platelets
Conditions: [3H]PAF 30 pmolar, 90 minutes, ambient temperature, Ki calculated from IC50
Description: [^3 H]PAF receptor binding to vital human blood platelets
This experiment determined the competitive interaction of the test substances (in this case PAF-antagonists) with the known interaction of the radioligand [^3 H]PAF to the same receptor.
The bonding studies were carried out on vital human thrombocytes. Blood samples from healthy donors were diluted with ACD buffer and centrifuged (15 minutes, 160×g). The platelet-rich plasma was purified by chromatography on Sepharose CL-2B (for eluting: HEPES buffer, pH 7.4, 20° C.).
Defined quantities (e.g., 800 μl) of the platelet suspension were incubated for 90 minutes at ambient temperature with:
a) a 30 pmolar [^3 H]PAF solution diluted with buffer;
b) a 30 pmolar [^3 H]PAF solution which simultaneously contains a μmolar (non-labelled) PAF solution; and
c) a 30 pmolar [^3 H]PAF solution and the solutions of the test substances (different concentrations).
Incubation a) was used to determine total binding. Incubation b) was used to determine non-specific binding.
The reaction was stopped by vacuum filtering. The filters with the blood platelets were mixed with scintillation liquid and the residual radioactivity was measured in a counter. The specific binding was obtained from the total binding minus the non-specific binding. […]

T1 sequence (P25105 whole entry): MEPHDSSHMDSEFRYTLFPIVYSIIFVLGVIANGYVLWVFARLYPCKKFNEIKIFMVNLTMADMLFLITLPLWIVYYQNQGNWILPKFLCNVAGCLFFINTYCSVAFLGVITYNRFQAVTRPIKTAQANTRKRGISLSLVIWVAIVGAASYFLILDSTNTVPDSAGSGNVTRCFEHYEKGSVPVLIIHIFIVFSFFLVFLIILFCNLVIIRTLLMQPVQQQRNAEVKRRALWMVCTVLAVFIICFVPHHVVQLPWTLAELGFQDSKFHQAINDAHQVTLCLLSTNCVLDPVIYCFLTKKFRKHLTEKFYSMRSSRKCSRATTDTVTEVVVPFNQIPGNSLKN

Structure (SMILES) | Ki [pM]
Cc1nnc2n1-c1sc3c(c1C(c1ccc(CCc4ccc(C(F)(F)F)cc4)cc1)=NC2C)CCC3 (racemic) [Compound 1] | 790
Cc1nnc2n1-c1sc3c(c1C(c1ccc(CCc4ccc(C(F)(F)F)cc4)cc1)=N[C@H]2C)CCC3 [Compound 2] | 470
